Test results: article PMC6101033 (Neuron, 2017)

What was measured:
RhoA = assay: RhoA2G FRET sensor imaging in hippocampal neurons; settings: AP5 1μM + ADDLs; dendritic shaft; Figure S4E
[1] = system: calcium signaling in hippocampal neurons; assay: RCaMP calcium sensor imaging in hippocampal neurons; settings: for baseline calcium in dendrites, VGCC blockers: all 1μM, sustained (1 min mean) ΔF/F of shaft ROIs, n=3–11 neurons, p<0.03 vs control imaging period; for inhibition of dendritic calcium in neurons lacking T-type channels: shCaV3.1-3.3, Figure S5E
[2] = system: CA1 pyramidal neurons (Schaffer collateral-CA1 synapses)
T-type channel = settings: ref Yamamoto et al, 2013; cited from earlier work
LTP = settings: ref Moriguchi et al., 20012; cited from earlier work
T-type calcium channels [3] = assay: T-type currents in acute hippocampal slices; parameters: species or system mouse; settings: NNC added to slice; Figure S8E
T-type calcium channels [4] = assay: whole-cell T-type; assay type: cell-based, Long-Evans rat; settings: for T-type current inhibition, blockers: 1μM; for LV currents in neurons lacking all T-type channels: shCaV3.1-3.3, Figure S6F
hippocampal neurons [5] = assay: cell health and dendritic spine integrity under blockers; assay type: cell-based, Long-Evans rat; settings: hippocampal slice cultures; data not shown
hippocampal neurons [6] = settings: ref Wills et al., 2012; cited from earlier work
[7] = AP5 1μM + ADDLs, dendritic shaft, Figure S4E

Compound: NC(CCCP(=O)(O)O)C(=O)O (stereo not drawn) [AP5]
- long-term RhoA activation by ADDLs under NMDAR inhibition (RhoA): long-term activation of RhoA and inhibition of calcium signaling is preserved
- acute calcium response to ADDLs under NMDAR inhibition [1, 7]: acute calcium responses to ADDLs in the dendritic shaft of neurons are lost
- long-term calcium inhibition by ADDLs under NMDAR inhibition [1, 7]: long-term activation of RhoA and inhibition of calcium signaling is preserved

Compound: COCCOC(=O)C1=C(C)NC(C)=C(C(=O)OC(C)C)C1c1cccc([N+](=O)[O-])c1 (stereo not drawn) [nimodipine]
- LTP, L-type channel blocker ([2]; Nimodipine 1μM, 6 months mice, fEPSC 55–60 min): no effect on LTP

Compound: O=C1N=C2C=CC=CN2C12Cc1ccccc1C2 [STK101, spiro[imidazo-[1,2-a]pyridine-3,2-indan]-2(3H)-one]
- T-type channel agonism (T-type channel): T-type channel agonist
- LTP (LTP): enhances LTP

Compound: CC(C)[C@H]1c2ccc(F)cc2CC[C@@]1(CCN(C)CCCc1nc2ccccc2[nH]1)OC(=O)C1CC1 [NNC]
- LV currents in acute hippocampal slice (T-type calcium channels [3]): inhibits LV currents in our acute hippocampal slice recording
- T-type current inhibition, blockers (T-type calcium channels [4]): ADDL’s inhibition of T-type currents was comparable to T-type channel blockers NNC and TTA-P2
- LV currents in neurons lacking all T-type channels (T-type calcium channels [4]): neither NNC or TTAP2 inhibit LV currents in neurons lacking all T-type channels
- LTP rescue under ADDLs by ROCK inhibition or NgR loss, effect of NNC ([2]; NNC 10μM + ADDL + Y27632 (10μM) or NgR^NNN, p<0.04): reverses the capacity of ROCK inhibition (Y27632) or NgR loss (NgR^NNN) to rescue neurons from ADDL-mediated LTP reduction
- LTP, NNC combined with ADDLs ([2]; NNC 10μM + ADDL, fEPSC 55–60 min, n=6–8 animals/slices per condition): no greater inhibition of LTP than either ADDL or NNC alone
- LTP, T-type channel blocker ([2]; NNC 10μM, 6 months mice, fEPSC 55–60 min, p<0.001 vs CON): inhibits LTP in acute hippocampal slices
- baseline calcium in dendrites, VGCC blockers [1]: elicited the largest reductions in baseline calcium in dendrites
- inhibition of dendritic calcium in neurons lacking T-type channels [1]: eliminates NNC and TTA-P2’s inhibition of calcium signaling in dendrites
- effects on dendritic spines, NNC (hippocampal neurons [5]): no pathological effects on dendritic spines in hippocampal slice cultures

Compound: lysophosphatidic acid [LPA]
- T-type currents, RhoA activator (T-type calcium channels [4]; LPA 1μM vs ADDLs 150nM, 14–18 DIV): inhibits T-type currents with a magnitude comparable to that of ADDLs

Compound: C[C@@H](N)[C@H]1CC[C@H](C(=O)Nc2ccncc2)CC1 [Y27632]
- neuron health, Y27632 (hippocampal neurons [6]): no deleterious effects on neuron health
- reversal of ADDL block of T-type currents (T-type calcium channels [4]; Y27632 1μM + ADDLs): reverses ADDL’s block of T-type channel currents
- LTP, reversal of ADDL inhibition ([2]; Y27632 1μM preincubation + ADDLs 150 nM, fEPSC 55–60 min, p<0.05 vs ADDL): reverses ADDL’s inhibition of LTP
- LTP, ROCK inhibitor alone ([2]; Y27632 1μM, control neurons, no ADDLs, p<0.03 vs CON (WT)): blocks LTP
- ADDL inhibition of dendritic calcium under ROCK inhibition ([1]; Y27632 1μM, 10 minutes, then ADDLs 150nM, n=3 neurons): ADDL-mediated inhibition of dendritic calcium signaling in neurons is lost
- RCaMP activity in the dendritic shaft, ROCK inhibitor ([1]; Y27632 1μM, 1 min mean ΔF/F, shaft ROIs): marked rise in RCaMP activity in the dendritic shaft of neurons
- ADDL inhibition of dendritic calcium after washout of Y27632 ([1]; washout 10 minutes, then ADDLs 150nM, n=3 neurons, p<0.001 vs CON): following a washout of Y27632, ADDL’s inhibition of dendritic calcium signaling is restored

Compound: CC1(C)C[C@@H](CN2CCC(F)(CNC(=O)c3cc(Cl)cc(Cl)c3)CC2)CCO1 [TTA-P2]
- T-type current inhibition, blockers (T-type calcium channels [4]): ADDL’s inhibition of T-type currents was comparable to T-type channel blockers NNC and TTA-P2
- LV currents in neurons lacking all T-type channels (T-type calcium channels [4]): neither NNC or TTAP2 inhibit LV currents in neurons lacking all T-type channels
- baseline calcium in dendrites, VGCC blockers [1]: elicited the largest reductions in baseline calcium in dendrites
- inhibition of dendritic calcium in neurons lacking T-type channels [1]: eliminates NNC and TTA-P2’s inhibition of calcium signaling in dendrites
